Data published in US10808003B2, “Amphipathic molecule based on tandem malonate and use thereof” (Industry-University Cooperation Foundation Hanyang …, priority 2017, dated 2020).

What was measured:
[1] = system: T1, light harvesting complex I and reaction center (LHI-RC) complex; test: Stability of LHI-RC complex in amphipathic molecule, UV-visible spectrum over 20 days; format: biochemical, Rhodobacter capsulatus; settings: CMC+0.04 wt % or CMC+0.2 wt %, 20 days at room temperature, FIGS. 7 and 8
T1 construct: His tag (only implied by the Ni-NTA / His-SpinTrap purification); made in house
Method: The super-assembly of R. capsulatus expressed in manipulated R. capsulatus strains was solubilized and purified according to a protocol disclosed in previous literature (P. S. Chae, Analyst, 2015, 140, 3157-3163.). A 10 mL aliquot of a frozen membrane was thawed, and homogenized using a glass tissue homogenizer at room temperature. The homogenate was incubated for 30 minutes at 32° C. under gentle agitation. After addition of 1.0 wt % DDM, the homogenate was further incubated for 30 minutes at 32° C. Following ultracentrifugation, a supernatant containing a solubilized light harvesting complex I and reaction center (LHI-RC) complex was collected, and incubated with an Ni^2+-NTA resin for 1 hour at 4° C. The resin was added to each 10 His-SpinTrap column, and then the resulting product was washed with 500 μL of a coupling buffer (10 mM Tris (pH 7.8), […], 1×CMC DDM) twice. The LHI-RC complex purified by DDM was eluted from the column using a buffer containing 1.0 M imidazole (2×300 μL). […] Protein stability was measured at regular intervals while a protein-amphipathic molecule sample was incubated by measuring the UV-visible spectrum of a specimen in a range of 650 to 950 nm.

[2] = system: LeuT (leucine transporter); test: LeuT stability by [3H]-Leu substrate binding, scintillation proximity assay (SPA); format: biochemical, Aquifex aeolicus; settings: TMMs or DDM at CMC+0.04 wt %, incubation at room temperature, FIG. 13a
Method: An experiment of measuring LeuT protein stability for TMGs and TMMs was performed. (a) CMC+0.04 wt % or (b) CMC+0.2 wt % of each amphipathic molecule was used, and the evaluation of the LeuT protein stability was performed by taking an advantage of a characteristic of LeuT binding to a substrate through a scintillation proximity assay (SPA) using [^3H]-Leu. […]
Specifically, wild type LeuT (leucine transporter) derived from a thermophilic bacterium, Aquifex aeolicus, was purified by a previously-disclosed method (G. Deckert et al., Nature 1998, 392, 353-358). LeuT was expressed in E. coli C41 (DE3) transformed with pET16b encoding a C-terminus 8×His-tagged transporter (the expression plasmid was provided by Dr E. Gouaux, Vollum Institute, Portland, Oreg., USA). In summary, following isolation of a bacterial membrane and lysis with 1% (w/v) DDM, the protein was allowed to bind to a Ni^2+-NTA resin (Life Technologies, Denmark), and eluted in 20 mM Tris-HCl (pH 8.0), 1 mM NaCl, 199 mM KCl, 0.05% (w/v) DDM and 300 mM imidazole. Afterward, the purified LeuT (approximately 1.5 mg/ml) was diluted with the same buffer used above, from which DDM and imidazole were removed, and then supplemented with TMGs or DDM at the final concentration of CMC+0.04% (w/v). […] SPA was performed using a buffer containing 450 mM NaCl and each of the TMGs and TMMs at the predetermined concentration. The SPA reaction is performed in the presence of 20 nM [^3H]-Leucine and 1.25 mg/ml copper chelate (His-Tag) YSi beads (Perkin Elmer, Denmark). A total [^3H]-Leucine binding degree of each sample was measured using a MicroBeta liquid scintillation counter (Perkin Elmer).

[3] = Critical micelle concentration by fluorescent staining with diphenylhexatriene (DPH); format: physicochemical; settings: aqueous solution
Method: A method of measuring CMC is not particularly limited, and any method well known in the art, for example, a fluorescent staining method using diphenylhexatriene (DPH) may be used.
(§1) Specifically, a CMC was measured using fluorescent staining and diphenylhexatriene (DPH), and the hydrodynamic radii (Rh) of micelles formed by each agent (1.0 wt %) were measured by a DLS test. The measured results were compared with those for the conventional amphipathic molecule (detergent), DDM, and thus are shown in Table 1.

[4] = molecular target: T2, melibiose permease (MelBSt) (Salmonella typhimurium, UniProt P30878); test: MelBSt extraction and solubility at four temperatures, SDS-PAGE and western blotting; format: biochemical; settings: 1.5 wt %, 90 minutes
T2 construct: made in house; host or cells: E. coli DW2 cells (melB and lacZY), plasmid pK95AHB/WT MelBSt/CH10
Method: An experiment was performed to measure structural stability of Salmonella typhimurium melibiose permease (MelBSt) protein by TMGs. The MelBSt protein was extracted from a membrane using TMGs or DDM, and then an amount of the extracted protein and its structure were analyzed by SDS-PAGE and western blotting. A concentration of the amphipathic molecule used was 1.5 wt %, and two types of performance such as protein extraction efficiency and stabilization ability of the compound were simultaneously evaluated by extracting the protein at four temperatures (0, 45, 55, and 65° C.), incubating the protein for 90 minutes at the same temperatures, and measuring an amount of the protein remaining dissolved in an aqueous solution. The amount of the protein extracted and stabilized by each amphipathic molecule was expressed as a relative value (%) with respect to a total amount of the protein contained in a membrane sample not treated with an amphipathic molecule.
Specifically, Salmonella typhimurium MelBSt (melibiose permease) having a 10-His tag at the C-terminus was expressed in E. coli DW2 cells (melB and lacZY) using plasmid pK95AHB/WT MelBSt/CH10. According to the method disclosed in the article written by A. S. Ethayathulla et al. (Nat. Commun. 2014, 5, 2009), cell growth and membrane preparation were performed. A protein assay was performed using a Micro BCA kit (Thermo Scientific, Rockford, Ill.). Using the protocol disclosed in Nat. Methods 2010, 7, 1003-1008 written by P. S. Chae et al., DDM or TMGs were evaluated for MelBSt stability. A MelBSt-containing membrane sample (the final protein concentration was 10 mg/mL) was incubated at four temperatures (0, 45, 55 and 65° C.) for 90 minutes in a 1.5% (w/v) DDM or TMG-containing solubilization buffer (20 mM sodium phosphate, pH 7.5, 200 mM NaCl, 10% glycerol, 20 mM melibiose). To remove insoluble material, ultracentrifugation was performed using a Beckman Optima™ MAX ultracentrifuge equipped with a TLA-100 rotor at 355,590 g at 4° C. for 45 minutes, and then 20 μg of each protein sample was separated using SDS-15% PAGE, followed by immunoblotting using a Penta-His-HRP antibody (Qiagen, Germantown, Md.). MelBSt was measured by an ImageQuant LAS 4000 biomolecular imager (GE Health Care Life Sciences) using a SuperSignal West Pico chemiluminescent substrate.

[5] = Hydrodynamic radius of micelles by dynamic light scattering (DLS); format: physicochemical; settings: micelles formed by each agent at 1.0 wt %
Method: A method of measuring the radius of the micelles is not particularly limited, and any method well known in the art, for example, a DLS test may be used.
as §1

CCCCCCCCCCCCO[C@@H]1O[C@H](CO)[C@@H](O[C@H]2O[C@H](CO)[C@@H](O)[C@H](O)[C@H]2O)[C@H](O)[C@H]1O [DDM, n-dodecyl-β-D-maltopyranoside, reference compound]
stability of the LHI-RC complex [1]: significantly reduced complex stabilization as the concentration increased from CMC+0.04 wt % to CMC+0.2 wt % | activity of LeuT over time [2]: gradually reduced over time | CMC [3]: ~0.17 mM | CMC (wt %) [3]: ~0.0087 wt % | amount of MelBSt solubilized / extraction efficiency ([4]; 0° C.): slightly more excellent protein extraction efficiency than TMGs | MelBSt remaining solubilized ([4]; 55° C.): 10% | MelBSt protein dissolved in aqueous solution ([4]; 65° C.): not detected | Rh (nm), hydrodynamic radius of micelles [5]: 3.4 ± 0.03 nm
